Series [1] concerns HS68 cells. Particulars: HS68 cells treated for 24 hours.
Method: HS68 cells (human skin fibroblast cell line, ATCC) were treated for 24 hours with compounds of the present invention at 0, 1, 3, 10, 30, 100, 300, or 1,000 nmol/L final concentration. Cells were harvested and fixed in ice-cold 70% ethanol (Sigma-Aldrich). Fixed cells were washed with PBS, stained with 40 μg/mL propidium iodide (Thermofisher Scientific), 10 g RNAseA (Sigma-Aldrich) in PBS-CMF (calcium magnesium free). Samples were processed using flow cytometer (Fisher), and cell-cycle analysis was completed using FlowJo software (Tree Star).
Series [2] can be described thus: Metabolic stability in monkey liver microsomes. The series is classed as in vitro ADME. Particulars: monkey liver microsomes 0.5 mg/mL. The method, then:
(§1) Metabolic stability of compounds is assessed at […] with human, rat, mouse, dog, and monkey liver microsomes (0.5 mg/mL). Compound and protein are equilibrated at 37° C. for 5 min prior to reaction initiation with co-factor NADPH. […] After quenching and centrifugation, supernatants were analyzed by LC-MS with methods specific to compounds tested.
On the technique in general: Microsomes from liver hold many membrane-bound enzymes, among them those of drug oxidation.

A short description of series [3]: Metabolic stability in human liver microsomes. The series is classed as in vitro ADME. Particulars: human liver microsomes 0.5 mg/mL. On the procedure:
as §1

A short description of series [4]: Metabolic stability in mouse liver microsomes. The series is classed as in vitro ADME. Particulars: mouse liver microsomes 0.5 mg/mL. The method, then: as §1
The target in series [5] is CDK2 (Homo sapiens (Human), UniProt P24941). The experiment in a line: CDK2 Inhibition Assay. It is filed as biochemical. On the procedure: CDK2 Inhibition Assay. […] The same volume of DMSO was adopted as high control. 20 nL of the test compound solution in DMSO were dispensed into a new 384-well assay plate by Echo 550. […] Kinase assay buffer supplemented with substrate peptides was employed as low control to monitor the background. 400 µM ATP was prepared in kinase assay buffer containing and 5 μL of ATP solution was added to each well to start the reaction. The assay plate was incubated at 25° C. for 90 minutes and the reaction was stopped by adding 40 μL of 0.5 M EDTA.
Phosphorylated fluorescent-tagged peptides were differentiated from non-phosphorylated peptides by separating using Caliper EZ Reader II and the detection was directly converted to conversion ratio.

Series [6] is described as follows: Metabolic stability in rat liver microsomes. It is filed as in vitro ADME. Particulars: rat liver microsomes 0.5 mg/mL. On the procedure: as §1
Series [7] is described as follows: Metabolic stability in dog liver microsomes. It is filed as in vitro ADME. Particulars: dog liver microsomes 0.5 mg/mL. On the procedure:
as §1

Series [8] has as its target CDK5 (Homo sapiens (Human), UniProt Q00535). Kind of series: CDK5 Inhibition Assay. The series is classed as biochemical. On the procedure: CDK5 Inhibition Assay. […] The same volume of DMSO was adopted as high control. 20 nL of the test compound solution in DMSO were dispensed into a new 384-well assay plate by Echo 550. […] Kinase assay buffer supplemented with substrate peptides was employed as low control to monitor the background. 40 µM ATP was prepared in kinase assay buffer containing and 5 μL of ATP solution was added to each well to start the reaction. The assay plate was incubated at 25° C. for 90 minutes and the reaction was stopped by adding 40 μL of 0.5 M EDTA.

Series [9] can be described thus: Mouse pharmacokinetics (p.o. and i.v.).
Method: Blood samples were taken at 0.083, 0.25, 0.5, 1.0, 3.0, 6.0 and 24 hours post i.v. dosing and at 0.25, 0.5, 1.0, 3.0, 6.0 and 24 hours post p.o. dosing. The plasma concentration of compounds were determined by HPLC.

The values that follow come from patent publication US11351170B2, “Substituted pyrimidines as CDK4/6 inhibitors” (priority 2017, dated 2022).

The term half-life denotes the time in which the quantity being followed falls by half. The CLint scaled is a measure of how fast metabolising enzymes remove a compound, apart from limits set by blood flow. By IC50 is commonly meant the concentration that inhibits the measured activity by half. In general, AUC(0-t) refers to exposure summed from dosing to a finite time, without extrapolation to infinity. The term Cmax denotes the highest concentration seen after dosing. As usually defined, the Tmax is the time from dosing to the highest level.

Read-outs that look alike come from different tables or passages of the source.

CDK5, sequence (Q00535 whole entry): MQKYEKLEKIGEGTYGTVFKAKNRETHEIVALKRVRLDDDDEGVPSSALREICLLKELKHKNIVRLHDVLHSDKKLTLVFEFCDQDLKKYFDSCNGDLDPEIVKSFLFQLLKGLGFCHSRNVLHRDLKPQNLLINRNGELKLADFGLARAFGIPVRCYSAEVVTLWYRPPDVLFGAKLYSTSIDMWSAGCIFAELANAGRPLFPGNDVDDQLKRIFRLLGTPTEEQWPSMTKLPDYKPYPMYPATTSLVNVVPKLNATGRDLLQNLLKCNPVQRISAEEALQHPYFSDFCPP
CDK5, sequence (Q15078 99-307 partner): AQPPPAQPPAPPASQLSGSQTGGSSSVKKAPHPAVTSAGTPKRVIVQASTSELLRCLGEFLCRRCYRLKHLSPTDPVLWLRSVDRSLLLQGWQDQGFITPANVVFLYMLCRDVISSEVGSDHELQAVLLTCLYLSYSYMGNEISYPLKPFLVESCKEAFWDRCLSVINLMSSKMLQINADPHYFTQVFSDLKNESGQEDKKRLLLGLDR

Regarding `CCN1CCC(COc2ccc(Nc3ncc(F)c(-c4cc(F)c5nc6n(c5c4)C(C)(C)CC6)n3)nc2)CC1` [Example 8, N-(5-((1-ethylpiperidin-4-yl)methoxy)pyridin-2-yl)-5-fluoro-4-(5-fluoro-1,1-dimethyl-2,3-dihydro-1H-benzo[d]pyrrolo[1,2-a]imidazol-7-yl)pyrimidin-2-amine], the “G1 % (max)” value in [1] is on record as 79.35%. Moreover, the half-life in series [2] (NADPH, 37° C.) was 0.223 h; in [3] (NADPH, 37° C.) it was 1.34 h; in series [4] (NADPH, 37° C.), 0.45 h; in [6] (NADPH, 37° C.), 1.29 h; in series [7] (NADPH, 37° C.), 0.402 h; in series [9] (plasma, iv, 2 mg/kg), 3.36 h. Besides, the CLint scaled in series [2] (scaled) was 151 mL/min/kg; in series [3] (scaled), 21.7 mL/min/kg; in series [4] (scaled), 202 mL/min/kg; in series [6] (scaled) it was 32.2 mL/min/kg; in [7] (scaled), 143 mL/min/kg. Moreover, the IC50 in series [5] came out at 285 nM; in series [5] (read-out: CDK2 IC50), 368 nM; in series [8], 705 nM. Besides, the F in series [9] (10 mg/kg p.o. vs 2 mg/kg i.v.) is given as 45.6%. For the same molecule, the AUC(0-t) in series [9] (plasma, iv, 2 mg/kg) turned out to be 2110 ng·h/mL; in series [9] (plasma, po, 10 mg/kg), 4820 ng·h/mL. Besides, the Vd in series [9] (plasma, iv, 2 mg/kg) is 3.71 L/kg. This molecule also showed a clearance in series [9] (plasma, iv, 2 mg/kg) of 15.7 mL/min/kg. The molecule also had a maximum concentration (Cmax) in series [9] (plasma, po, 10 mg/kg) of 340 ng/mL. Further, the Tmax in [9] (plasma, po, 10 mg/kg) came out at 6 h.
